Key:
[1] = test system: Ba/F3 EGFR 19Del/C797S xenograft; assay: Ba/F3 EGFR 19Del/C797S xenograft study; assay type: in vivo, mouse; settings: even at 25 mg/kg
Description: (§1) For Ba/F3 EGFR 19Del/C797S and EGFR 19Del/T790M/C797S xenografts models, each mouse was inoculated subcutaneously at the right flank with cells (0.5×10^6) in 0.1 mL of PBS supplemented with BD Matrigel (1:1) for tumor development. The animals were randomized, and treatment was started when the average tumor volume reached 150-180 mm^3 for the efficacy study.
(§2) Tumor volumes were measured twice weekly in two dimensions using a caliper, and the volume was expressed in mm^3 using the formula: volume=0.5 a×b^2 where a and b are the long and short diameters of the tumor, respectively. The tumor sizes were then used for the calculations of T/C (treatment/control) values. The tumor volume was used for calculation of tumor growth index (TGI) of each group according to the following formula: TGI (%)=[1-(Tti-Tt0)/(Vci-Vc0)]×100. The bodyweight of mice was measured daily for the dosing phase, and the relative change of bodyweight (RCBW) of each mouse according to the following formula: […]

[2] = test system: Ba/F3 EGFR 19Del/T790M/C797S xenografts; assay: Ba/F3 EGFR 19Del/T790M/C797S xenograft study; assay type: in vivo, mouse; settings: even at 25 mg/kg
Description: as §1, §2

C=CC(=O)Nc1cc(Nc2nccc(-c3cn(C)c4ccccc34)n2)c(OC)cc1N(C)CCN(C)C [osimertinib, reference compound]
tumor growth [1]: did not block the tumor growth
tumor growth [2]: did not block the tumor growth
